Results taken from US20260232713A1, “PLECOMACROLIDE DERIVATIVES FOR MHC-I NEF DOWNMODULATION” (priority 2022, published 2026).
“And” between values parts separate entries of the source, which are not always exact repeats. Equal values may be shown once. Read-outs that look alike come from different tables or passages of the source.

Columns and labels:
V-ATPase = target: T1, V-ATPase (Homo sapiens, UniProt P27449); test: Lysosomal acidification (Lysotracker mean fluorescence intensity) as indicator of V-ATPase activity in primary CD4+ T cells; format: cell-based
T1 construct: endogenous in cells; host or cells: primary CD4+ T cells (HIV ΔGPE infected) from donor PBMCs
Protocol: (§1) Inhibition of HIV-Nef was measured by assessing its capacity to downmodulate MHC-I HLA-A2 on the surface of primary CD4+ T cells 24-hours after treatment with each compound. V-ATPase inhibition was assessed at the same time point using lysosomal acidification as an indicator of V-ATPase activity. This was measured using a flow cytometric assay that quantified Lysotracker mean fluorescence intensity as previously described (Painter et al., 2020). Cell viability was measured at 24-hour and 72-hour time points using a previously described flow cytometric assay (Painter et al., 2020).
(§2) Anonymized leukocytes isolated by apheresis were obtained from New York Blood Center and peripheral blood mononuclear cells (PBMCs) were isolated by Ficoll-Paque Plus (17144002; GE Healthcare) centrifugation using SepMate tubes (85450; StemCell Technologies) according to the manufacturers protocol. […] Then, 20-24 hours post-PHA activation, 15 mL of R10/PHA medium is removed and replaced with 5 mL of R10+100u/mL Recombinant Human IL-2 (202|L010; R&D Systems). 48 hours after IL-2 stimulation, primary CD4^+ T cells were infected via spinoculation with previously described HIV ΔGPE construct.
(§3) 48 hours after spinoculation, cells were pooled and plated in flat bottom 96-well plate. […] Compounds were thawed at room temperature and diluted in R10 medium to 2× starting concentration.
(§4) All ΔGPE infected cells were collected 24 hours after treatment.
(§5) All statistical analyses were performed using GraphPad Prism software. Curves were generated using GraphPad Prism software using [Inhibitor] vs. response with variable slope (four parameters).

primary CD4+ T cells = test: in vitro; details: for CC50: read-out: Viability (TC50), mock primary CD4+ T cells, 72 hours after treatment; for Viability:Nef (therapeutic window separating Nef IC50 and TC50): ratio TC50 to Nef IC50
Protocol: as §1, §2, §3, §4
(§6) All Mock cells were collected 72 hours after treatment.
as §5

in vitro = details: human
Protocol: as §1, §2, §3, §4, §6, §5

[1] = Lysotracker Red, ΔGPE infected primary CD4+ T cells, 24 hours after treatment, read-out: Lysotracker (V-ATPase IC50, lysosomal neutralization)

T1 sequence (P27449 whole entry, looked up): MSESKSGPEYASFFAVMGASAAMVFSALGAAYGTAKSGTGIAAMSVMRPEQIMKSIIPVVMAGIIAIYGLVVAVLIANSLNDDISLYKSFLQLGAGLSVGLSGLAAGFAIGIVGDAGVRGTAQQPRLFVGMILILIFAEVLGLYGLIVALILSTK

23-OH-tylactone [Compound S46, reference compound]
IC50 (V-ATPase; [1]): > 1000 nM
CC50 (primary CD4+ T cells): > 1000 nM

CC[C@H]1OC(=O)[C@H](C)[C@@H](O)[C@@H](C)C[C@@H](C)C(=O)/C=C/[C@H]1C [10-deoxymethynolide, reference compound]
IC50 (V-ATPase; [1]): 1720 nM
CC50 at 72 h (in vitro): 140 nM
Viability:Nef (therapeutic window separating Nef IC50 and TC50) (primary CD4+ T cells): 0.39 fold

CC=CC1OC(O)(C(C)C(O)C(C)C2OC(=O)C(OC)=CC(C)=CC(C)C(O)C(CC)C(O)C(C)CC(C)=CC=CC2OC)CC(OC2CC(O)C(OC(N)=O)C(C)O2)C1C (stereo not shown) [Compound 1, Concanamycin A, reference compound]
IC50 (V-ATPase): 1.7 nM
CC50 (in vitro): 1.3 nM
Viability:Nef (therapeutic window separating Nef IC50 and TC50) (primary CD4+ T cells): 6.6 fold

CC=CC1OC(O)(C(C)C(O)C(C)C2OC(=O)C(OC)=CC(C)=CC(C)C(O)C(C)C(O)C(C)CC(C)=CC=CC2OC)CC(OC2CC(O)C(OC(N)=O)C(C)O2)C1C (stereo not shown) [Compound 4, concanamycin B, reference compound]
IC50 (V-ATPase): 26 nM
CC50 (in vitro): 7 nM
Viability:Nef (therapeutic window separating Nef IC50 and TC50) (primary CD4+ T cells): 5 fold and 5.5 fold

C/C=C/[C@H]1O[C@@](O)([C@@H](C)[C@H](O)[C@H](C)[C@H]2OC(=O)/C(OC)=C/C(C)=C/[C@@H](C)[C@@H](O)[C@@H](CC)[C@@H](O)[C@H](C)C/C(C)=C/C=C/[C@@H]2OC)C[C@@H](O[C@H]2C[C@@H](O)[C@H](O)[C@@H](C)O2)[C@@H]1C [Compound 5, concanamycin C, reference compound]
IC50 (V-ATPase; [1]): 3.7 nM
Viability:Nef (therapeutic window separating Nef IC50 and TC50) (primary CD4+ T cells): 2.3 fold
CC50 (primary CD4+ T cells): 1.3 nM

C/C=C/[C@H]1O[C@@](O)([C@@H](C)[C@H](O)[C@H](C)[C@H]2OC(=O)/C(OC)=C/C(C)=C/[C@@H](C)[C@@H](O)[C@@H](CC)[C@@H](O)[C@H](C)C/C(C)=C/C=C/[C@@H]2OC)C[C@@H](O)[C@@H]1C [Compound 6, Concanamycin F]
IC50 (V-ATPase): 5.8 nM
CC50 (in vitro): 2.9 nM

C/C=C/[C@H]1O[C@@](O)([C@@H](C)[C@H](O)[C@H](C)[C@H]2OC(=O)/C(OC)=C/C(C)=C/[C@@H](C)[C@@H](O)[C@@H](C)[C@@H](O)[C@H](C)C/C(C)=C/C=C/[C@@H]2OC)C[C@@H](O)[C@@H]1C [Compound 7, Concanamycin X]
IC50 (V-ATPase): 38 nM
CC50 (in vitro): 14 nM

C/C=C/[C@H]1O[C@@](O)([C@@H](C)[C@H](O)[C@H](C)[C@H]2OC(=O)/C(OC)=C/C(C)=C/[C@@H](C)[C@@H](O)[C@@H](CC)[C@@H](O)[C@H](C)C/C(C)=C/C=C/[C@@H]2OC)C[C@@H](O[C@@H]2C[C@H](OC(=O)CCCC)[C@@H](OC(N)=O)[C@H](C)O2)[C@@H]1C [Compound 8, 3-pentanoate Concanamycin A]
IC50 (V-ATPase): 11 nM
CC50 (in vitro): 3.5 nM
Viability:Nef (therapeutic window separating Nef IC50 and TC50) (primary CD4+ T cells): 4.8 fold

C/C=C/[C@H]1O[C@@](O)([C@@H](C)[C@H](O)[C@H](C)[C@H]2OC(=O)/C(OC)=C/C(C)=C/[C@@H](C)[C@@H](O)[C@@H](C)[C@@H](O)[C@H](C)C/C(C)=C/C=C/[C@@H]2OC)C[C@@H](O[C@@H]2C[C@H](OC(=O)CCCC)[C@@H](OC(N)=O)[C@H](C)O2)[C@@H]1C [Compound 9, 3-pentanoate Concanamycin B]
IC50 (V-ATPase): 110 nM
CC50 (in vitro): 27 nM
Viability:Nef (therapeutic window separating Nef IC50 and TC50) (primary CD4+ T cells): 7.9 fold

C/C=C/[C@H]1O[C@@](O)([C@@H](C)[C@H](O)[C@H](C)[C@H]2OC(=O)/C(OC)=C/C(C)=C/[C@@H](C)[C@@H](O)[C@@H](C)[C@@H](OC(=O)CCCC)[C@H](C)C/C(C)=C/C=C/[C@@H]2OC)C[C@@H](O[C@@H]2C[C@H](OC(=O)CCCC)[C@@H](OC(N)=O)[C@H](C)O2)[C@@H]1C [Compound 10, 3′,9-Dipentanoate Concanamycin B]
IC50 (V-ATPase): 130 nM
CC50 (in vitro): 35 nM
Viability:Nef (therapeutic window separating Nef IC50 and TC50) (primary CD4+ T cells): 5.8 fold

C/C=C/[C@H]1O[C@@](O)([C@@H](C)[C@H](O)[C@H](C)[C@H]2OC(=O)/C(OC)=C/C(C)=C/[C@@H](C)[C@@H](O)[C@@H](C)[C@@H](O)[C@H](C)C/C(C)=C/C=C/[C@@H]2OC)C[C@@H](O[C@@H]2C[C@H](OC(=O)CCCCCCCC)[C@@H](OC(N)=O)[C@H](C)O2)[C@@H]1C [Compound 11, 3-nonanoate Concanamycin B]
IC50 (V-ATPase): 170 nM
CC50 (in vitro): 36 nM
Viability:Nef (therapeutic window separating Nef IC50 and TC50) (primary CD4+ T cells): 4.3 fold

C/C=C/[C@H]1O[C@@](O)([C@@H](C)[C@H](O)[C@H](C)[C@H]2OC(=O)/C(OC)=C/C(C)=C/[C@@H](C)[C@@H](O)[C@@H](C)[C@@H](O)[C@H](C)C/C(C)=C/C=C/[C@@H]2OC)C[C@@H](O[C@@H]2C[C@H](OC(C)=O)[C@@H](OC(N)=O)[C@H](C)O2)[C@@H]1C [Compound 12, 3′-Acetyl Concanamycin B]
IC50 (V-ATPase): 20 nM
CC50 (in vitro): 5.3 nM
Viability:Nef (therapeutic window separating Nef IC50 and TC50) (primary CD4+ T cells): 8 fold and 8.0 fold

C/C=C/[C@H]1O[C@@](O)([C@@H](C)[C@H](O)[C@H](C)[C@H]2OC(=O)/C(OC)=C/C(C)=C/[C@@H](C)[C@@H](O)[C@@H](C)[C@@H](OC(C)=O)[C@H](C)C/C(C)=C/C=C/[C@@H]2OC)C[C@@H](O[C@@H]2C[C@H](OC(C)=O)[C@@H](OC(N)=O)[C@H](C)O2)[C@@H]1C [Compound 13, 3′,9-Diacetyl CMB]
IC50 (V-ATPase): 38 nM
CC50 (in vitro): 8 nM
Viability:Nef (therapeutic window separating Nef IC50 and TC50) (primary CD4+ T cells): 8.8 fold

C/C=C/[C@H]1O[C@@](O)([C@@H](C)[C@H](O)[C@H](C)[C@H]2OC(=O)/C(OC)=C/C(C)=C/[C@@H](C)[C@@H](O)[C@@H](CC)[C@@H](O)[C@H](C)C/C(C)=C/C=C/[C@@H]2OC)C[C@@H](O[C@@H]2C[C@H](OC(C)=O)[C@@H](OC(N)=O)[C@H](C)O2)[C@@H]1C [Compound 14, 3′-Acetyl CMA]
IC50 (V-ATPase): 3.7 nM
CC50 (in vitro): 1.6 nM
Viability:Nef (therapeutic window separating Nef IC50 and TC50) (primary CD4+ T cells): 8.5 fold

C/C=C/[C@H]1O[C@@](O)([C@@H](C)[C@H](O)[C@H](C)[C@H]2OC(=O)/C(OC)=C/C(C)=C/[C@@H](C)[C@@H](O)[C@@H](CC)[C@@H](OC(C)=O)[C@H](C)C/C(C)=C/C=C/[C@@H]2OC)C[C@@H](O[C@@H]2C[C@H](OC(C)=O)[C@@H](OC(N)=O)[C@H](C)O2)[C@@H]1C [Compound 15, 3′,9-diacetyl CMA]
IC50 (V-ATPase): 7.9 nM
CC50 (in vitro): 3.9 nM
Viability:Nef (therapeutic window separating Nef IC50 and TC50) (primary CD4+ T cells): 11 fold

COc1cc2c(O)c3c(c(-c4ccc5c(c4)OCO5)c2cc1OC)C(=O)OC3 [Compound S1, Diphyllin, reference compound]
IC50 (V-ATPase; [1]): > 1000 nM
CC50 at 72 h (in vitro): > 1000 nM

C[C@@H]1C[C@H](C)C[C@H](C)[C@@H](O)CC(=O)O[C@H]([C@@H]2CCC[C@H]2C(=O)O)C/C=C/C=C(/C#N)[C@H](O)[C@@H](C)C1 [Compound S2, Borrelidin, reference compound]
IC50 (V-ATPase): 165 nM
CC50 at 72 h (in vitro; mock-infected primary CD4+ T cells): 91 nM
Toxicity at 24 hours (primary CD4+ T cells; 24-hour time point): toxic at 24-hours
Viability:Nef (therapeutic window separating Nef IC50 and TC50) (primary CD4+ T cells): 2.0 fold

C=CC(C)C(OC(=O)[C@@H](C)[C@H](O)[C@H](C)[C@H]1OC(=O)/C(OC)=C/C(C)=C/[C@@H](C)[C@@H](O)[C@@H](C)C/C(C)=C/C=C/[C@@H]1OC)C(C)C (stereo partly shown) [Compound S8]
IC50 (V-ATPase): > 1000 nM
CC50 (in vitro): 520 nM

CO/C1=C\C(C)=C\[C@@H](C)[C@@H](O)[C@@H](C)C/C(C)=C/C=C/[C@H](OC)[C@@H]([C@@H](C)[C@@H](O)[C@H](C)[C@@]2(O)C[C@@H](OC(=O)c3ccccc3)[C@H](C)[C@@H](C(C)C)O2)OC1=O [Compound S13]
IC50 (V-ATPase): 140 nM
CC50 (in vitro): 130 nM

CO[C@H]1/C=C/O[C@@]2(C)Oc3c(C)c(O)c4c(O)c(c(/C=N/N5CCN(C)CC5)c(O)c4c3C2=O)NC(=O)/C(C)=C\C=C\[C@H](C)[C@H](O)[C@@H](C)[C@@H](O)[C@@H](C)[C@H](OC(C)=O)[C@@H]1C [Compound S26, Rifampicin, reference compound]
IC50 (V-ATPase; [1]): > 1000 nM
CC50 at 72 h (in vitro): > 1000 nM

CCC1OC(=O)C(C)C(OC2OC(C)CC(N(C)C)C2O)C(C)CC(C)C(=O)C=CC1C (stereo not shown) [Compound S30, YC-17, reference compound]
IC50 (V-ATPase; [1]): > 1000 nM
CC50 at 72 h (in vitro): > 1000 nM

CC[C@H]1OC(=O)[C@H](C)[C@@H](O[C@H]2C[C@@](C)(OC)[C@@H](O)[C@H](C)O2)[C@H](C)[C@@H](O[C@@H]2O[C@H](C)C[C@H](N(C)C)[C@H]2O)[C@](C)(O)C[C@@H](C)C(=O)[C@H](C)[C@@H](O)[C@H]1C [Compound S32, Erythromycin B, reference compound]
IC50 (V-ATPase; [1]): > 1000 nM
CC50 at 72 h (in vitro): > 1000 nM

CC[C@H]1OC(=O)[C@H](C)C(=O)[C@H](C)[C@@H](O[C@@H]2O[C@H](C)C[C@H](N(C)C)[C@H]2O)[C@@H](C)C[C@@H](C)C(=O)/C=C/[C@H]1C [Compound S33, Narbomycin, reference compound]
IC50 (V-ATPase; [1]): > 1000 nM
CC50 at 72 h (in vitro): > 1000 nM

CC1=CC[C@H]2O[C@]1(C)O[C@H]([C@H](C)/C=C(C)/C=C/C(O)=C1/C(=O)CNC1=O)[C@H]2C [Tirandamycin C, reference compound]
IC50 (V-ATPase): > 1000 nM
CC50 (in vitro): > 1000 nM

Des-tylactone [Compound S47, reference compound]
IC50 (V-ATPase; [1]): > 1000 nM
CC50 (primary CD4+ T cells): > 1000 nM
